Assay results reported in patent US20080051435A1, “Crystalline and amorphous forms of tiagabine” (Cephalon, Inc., priority 2006, published 2008).

Columns and labels:
[1] = Moisture sorption/desorption (VTI SGA-100 moisture balance); assay type: physicochemical
Procedure: Moisture sorption/desorption data were collected on a VTI SGA-100 moisture balance system. For sorption isotherms, a sorption range of 5 to 95% relative humidity (RH) and a desorption range of 95 to 5% RH in 10% RH increments were used for analysis. The samples were not dried prior to analysis. Equilibrium criteria used for analysis were less than 0.0100% weight change in 5 minutes with a maximum equilibration time of 3 hours if the weight criterion was not met. Data were not corrected for the initial moisture content of the samples.

[2] = Solid-form stability on storage at ambient temperature and humidity, XRPD analysis; assay type: physicochemical; conditions: for form conversion during storage: during storage (general description); for solid form by XRPD after storage: stored approximately two months, ambient temperature and humidity, hydrochloride
Text: Tiagabine HCl Form K was stored for approximately two months under conditions of ambient temperature and humidity.

Row | Compound | solid form by XRPD after moisture sorption/desorption ([1]; XRPD analysis of the sample after moisture sorption/desorption) | weight loss from 95% to 5% RH ([1]; desorption 95% to 5% RH) | weight loss upon equilibration at 5% relative humidity (RH) ([1]; equilibration at 5% RH, sample not dried prior to analysis) | weight gain from 5% to 95% RH ([1]; sorption 5% to 95% RH) | form conversion during storage ([2]; listed as Tiagabine hydrochloride Form L) | solid form by XRPD after storage [2] | form conversion during storage ([2]; listed as Tiagabine hydrochloride Form K)
1 | Cc1ccsc1C(=CCCN1CCC[C@@H](C(=O)O)C1)c1sccc1C [Tiagabine free base Form A, (−)-(R)-1-(4,4-bis(3-methyl-2-thienyl)-3-butenyl)-3-piperidinecarboxylic acid] | tiagabine free base amorphous | 18.7% | 1.0% | 23.5% |  |  | 
2 | Cc1ccsc1C(=CCCN1CCC[C@@H](C(=O)O)C1)c1sccc1C.Cl [Tiagabine HCl Form L, tiagabine hydrochloride] |  |  |  |  | converts to a mixture of tiagabine hydrochloride Forms B and Q | a mixture of tiagabine HCl Forms B and Q | 
3 | Cc1ccsc1C(=CCCN1CCC[C@@H](C(=O)O)C1)c1sccc1C.Cl [Tiagabine HCl Form K, tiagabine hydrochloride] |  |  |  |  |  | a mixture of tiagabine HCl Forms Q and B | converts to a mixture of tiagabine hydrochloride Forms Q and B
